Literature values, collected in patent US7943663B2, “Process and an apparatus for producing episesamin-rich compositions” (Suntory Holdings Limited, priority 2005, dated 2011).

Experiments:
[1] = test system: β-oxidation enzymes in the liver; conditions: rats, separately administered orally; compared with sesamin
[2] = rat, po
fatty acid synthases = conditions: rats, separately administered orally; sesamin versus episesamin

SMILES	gene expression and enzymatic activity of β-oxidation enzymes in the liver [1]	transfer into organs (in vivo distribution) [2]	activity for inhibiting fatty acid synthases (fatty acid synthases)
c1cc2c(cc1[C@H]1OC[C@H]3[C@@H]1CO[C@H]3c1ccc3c(c1)OCO3)OCO2 [Episesamin, episesamin]	markedly increased	at least twice as much as that of sesamin	no difference
c1cc2c(cc1[C@H]1OC[C@H]3[C@@H]1CO[C@@H]3c1ccc3c(c1)OCO3)OCO2 [Sesamin, sesamin]	–	–	no difference
